Experimental findings from the METLIN SMRT retention time set (Domingo-Almenara et al. 2019) are described below.

This data set can be described thus: gradient 5% acetonitrile 3 min, to 50% in 2 min, to 85% in 15 min, held 3 min, 100 µL/min. The settings on record: column: Zorbax Extend-C18 2.1 x 50 mm; eluents: water / acetonitrile, 0.1% formic acid. The gist of the method:
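Values are retention times taken from adduct peaks that software picked and an analyst inspected. The pure standards were run as mixtures of ~100 molecules on HPLC linked to a quadrupole time-of-flight mass spectrometer, in positive and negative ionization mode. A Zorbax Extend-C18 column (2.1 × 50 mm, 1.8 μm) was used at 100 μL/min with water and acetonitrile, each including 0.1% formic acid.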
The molecule `CCOc1ccc2nc(NC(=O)COc3nccc(C)n3)sc2c1` yielded an RP-LC retention time of 744 s.
`C=CCN(CC=C)C(=O)C1CCN(C(=O)c2cccc(F)c2)CC1`: the RP-LC retention time is 1250 s.
With `COC[C@@H]1CN(C(=O)c2ccoc2C)C[C@H]1c1nc(C2CC2)no1` the figure was 574 s.
`Cc1ccc(C)c(-c2cn3ccn(-c4ccc(F)cc4)c(=O)c3n2)c1` yielded an RP-LC retention time of 895 s.
The figure for `COc1ccccc1N1CCN(c2cc(SCC(=O)Nc3cc(C)cc(C)c3)ncn2)CC1` is 1070 s; for `COc1ccc(-n2ncc3c(=O)n(Cc4nc(-c5cc(OC)c(OC)c(OC)c5)no4)cnc32)cc1` it is 927 s.
With `COC(=O)CNC(=O)NCCc1noc(C2CC2)n1` the figure was 598 s; with `Cc1cc(S(=O)(=O)NCC2(C)CCOCC2)ccc1F`, 840 s.
Regarding `Cc1ccc(-c2nnc(-c3nn(C)c4c3CN(S(=O)(=O)c3ccc(Cl)cc3)CC4)o2)cc1`, the RP-LC retention time is 1070 s.
In turn, `COCCCn1c(=O)c2ccccc2n(Cc2nc(-c3cccc(C)c3)no2)c1=O` returned an RP-LC retention time of 855 s.
With `O=C(CSc1ccc(-n2ccnc2)nn1)NC1CCCCC1` the figure was 564 s; with `COc1ccc(-c2nnc(CC(=O)NC3CCCCCC3)o2)cc1`, 780 s.
`CCC(=O)N1CCc2cc(N3CC(C(=O)Nc4cccc(OC)c4)CC3=O)ccc21` (stereo unspecified) showed an RP-LC retention time of 750 s.
The figure for `CC(=O)Nc1ccc(CCc2nc3ccc(C(=O)NCc4ccc5c(c4)OCO5)cc3[nH]2)cc1` is 618 s.
Regarding `CCn1c(=O)c(C(=O)NCc2ccc(C)o2)nc2cccnc21`, the RP-LC retention time came out at 766 s.
With `CC(C)CCNC(=O)C1CCN(c2cncnc2N(C)C)CC1`, the RP-LC retention time amounted to 564 s.
Consider `O=C(Nc1nnc(-c2ccc(C(F)(F)F)cc2)o1)C1CC1`, for which the RP-LC retention time was determined as 714 s.
With `COc1ccc(N2C(=O)CCS2(=O)=O)cc1S(=O)(=O)N1CCC(C(N)=O)CC1` the figure was 612 s; with `Cc1cc(-c2nnc(C3CC3)o2)c(C)n1CC(=O)Nc1cccc(F)c1`, 825 s; with `CO[C@@H]1[C@@H](OC(N)=O)[C@H](O)[C@H](Oc2ccc3c(O)c(NC(=O)c4ccc(O)c(CC=C(C)C)c4)c(=O)oc3c2C)OC1(C)C`, 979 s.
The figure for `O=C(NCc1cccc(Br)c1)C1CCCN(c2ccc(=O)n(-c3ccc(F)cc3)n2)C1` (stereo unspecified) is 1050 s.
With `COc1ccc(-c2cn3cccnc3n2)cc1NC(=O)c1c(-c2ccccc2Cl)noc1C` the figure was 770 s.
`CCCc1noc(-c2ccc3nnc(CC(=O)NC4CCCCC4)n3c2)n1` registered an RP-LC retention time of 826 s.
With `O=C1Nc2ccc(Br)cc2/C1=C/C(=O)c1ccccc1`, the RP-LC retention time stood at 964 s.
With `CC(C)NC(=O)C1CN(S(=O)(=O)c2ccccc2)c2cc(C(C)(C)C)ccc2O1` (stereo unspecified) the figure was 780 s; with `O=C(c1nc2nc(-c3cccs3)cc(C(F)(F)F)n2n1)N1CCN(c2ccccn2)CC1`, 672 s.
With `COc1ccc(NC(=O)Cn2c(=O)c(CCC(=O)NC3CCCC3)nc3ccccc32)cc1Cl`, the RP-LC retention time came out at 681 s.
With `CSc1ncccc1C(=O)N1CCCC1c1nc(-c2ccc(F)cc2F)no1` (stereo unspecified) the figure was 907 s.
The figure for `C=C1C[C@@]23CC[C@H]4[C@@](C)(CCC[C@@]4(C)C(=O)O)[C@@H]2CC[C@]1(O)C3` is 1030 s.
Take `CCn1nccc1-c1cccc(-c2noc(-c3ccc(C)cc3)n2)c1`: the RP-LC retention time was found to be 1310 s.
With `c1ccc(-c2nc3nc4c(c(Nc5ccc6c(c5)OCCO6)n3n2)CCC4)cc1` the figure was 961 s; with `O=C(NCc1ccccn1)C1CCCN(c2nccnc2Sc2ccccc2)C1` (stereo unspecified), 687 s; with `COc1ccc(-c2noc(-c3ccc(NC(=O)COc4ccc(Br)cc4)cc3)n2)cc1`, 1280 s.
With `Cc1ccc(C(=O)Nc2nc(-c3ccc4c(c3)NC(=O)CO4)c(C)s2)cc1` the figure was 931 s.
With `CCOc1ccccc1NC(=O)N(C)CCc1noc(COc2ccccc2)n1` the figure was 977 s; with `Cn1ncc(NC(=O)c2cccc(Cl)c2)c(N2CCOCC2)c1=O`, 777 s; with `CCn1cc(-c2nc(C(=O)Nc3cccc(C)c3)cs2)c2cccnc21`, 1130 s.
Molecule `Cc1cc2n(n1)CCCN2C(=O)CCC(=O)N1CCc2ccccc2C1` showed an RP-LC retention time of 699 s.
The figure for `COc1cc(Nc2nc(C(=O)N3CCOCC3)cc3occc23)cc(OC)c1OC` is 710 s; for `CCOC(=O)C(=O)Nc1ccc(C(F)(F)F)cc1` it is 834 s; for `O=C(O)c1ccc(Nc2c(-c3ccc(Cl)cc3)nc3cnccn23)cc1` it is 737 s.
The figure for `COc1ccc(-n2nc3c(N4CCCC(C(=O)NCCc5ccco5)C4)nnc(C)c3c2C)cc1` (stereo unspecified) is 712 s; for `O=C(Nc1cnc(-c2ccccc2)nc1)c1cccc(Cl)c1` it is 1050 s; for `Cc1cc(C)c2nc(C)cc(C(=O)NCc3ccc(C)o3)c2c1` it is 735 s.
With `CCN1CCn2cc(S(=O)(=O)Nc3ccc(C)cc3C)cc2C1=O` the figure was 746 s; with `O=C(Cn1nc(N2CCCCCC2)c2ccccc2c1=O)Nc1ccc(F)c(F)c1`, 1150 s.
Take `CCn1ccc(C(=O)NC2CC2)n1`: the RP-LC retention time was determined as 619 s.
As for `N#CC1=C(SCC(=O)Nc2nccs2)NC(=O)CC1c1ccccc1F` (stereo unspecified), the RP-LC retention time is 696 s.
The figure for `C=CCCC1(C2=CCCCC2)C(=O)NC(=O)NC1=O` is 804 s; for `COCCN1CCn2cc(S(=O)(=O)Nc3cccc(Cl)c3)cc2C1=O` it is 718 s.
`CCc1noc(-c2cccn2CC#N)n1` registered an RP-LC retention time of 824 s.
The molecule `CCc1ccc(CNC(=O)C2Cc3cc(S(=O)(=O)N(CC)CC)ccc3N2C(C)=O)cc1` (stereo unspecified) came in with an RP-LC retention time of 617 s.
The figure for `O=c1c2sccc2n(Cc2nc(-c3ccc(Cl)c(F)c3)no2)c(=O)n1-c1ccc(F)cc1` is 1080 s; for `CCOc1ccc(NC(=O)c2oc3ccccc3c2C)c2cccnc12` it is 698 s; for `COC(=O)C(Cc1ccccc1)NC(=O)N1CCCn2nc(-c3cccs3)cc2C1` (stereo unspecified) it is 841 s.
For the molecule `Cc1cccc(-c2noc(-c3nc(C)no3)n2)c1`, the RP-LC retention time came to 1050 s.
The figure for `CN1C(=O)c2cccn2CC1CNS(=O)(=O)c1cccc2nsnc12` (stereo unspecified) is 680 s.
In turn, `Cc1cc(=O)n(CCc2ccccc2)c(N2CCCC2)n1` yielded an RP-LC retention time of 742 s.
With `COc1ccc(-n2nc(C(N)=O)c(=O)cc2OC)cc1` the figure was 581 s.
As to `COc1ccc(CCS(=O)(=O)NCC2(CO)CC2)cc1`, the RP-LC retention time stood at 662 s.
With `Cc1nccn1Cc1noc(-c2ccccc2)n1` the figure was 600 s; with `Cc1[nH]c(C(=O)N2CCCC(C(=O)NCCN3CCCCCC3)C2)c(C)c1C(=O)OC(C)C` (stereo unspecified), 654 s.
With `Cc1ccc(-n2nc(N3CCN(C(=O)c4cccs4)CC3)ccc2=O)cc1C` the figure was 830 s; with `CC(C)CN1CCn2cc(C(=O)NCC3CCCCC3)nc2C1`, 634 s.
`COc1cc(CNC(=O)C2CCN(Cc3cn(C)c4ccccc34)CC2)cc(OC)c1` yielded an RP-LC retention time of 674 s.
As for `CCOc1ncccc1CNC(=O)c1cnccn1`, the RP-LC retention time worked out at 600 s.
With `CCn1cc(C)c(C(=O)O)c1CC(=O)NCCN1CCOCC1` the figure was 582 s; with `CCOc1ccc(NC(=O)N2CCCC2c2nc(-c3ccc(OC)cc3)no2)cc1` (stereo unspecified), 940 s; with `Cc1cccc(CC(=O)NC2CCN(c3cc(-c4cccs4)[nH]n3)C2)c1` (stereo unspecified), 726 s.
With `CCOCCCNC(=O)CCCN1C(=O)CCn2nc(C)cc21` the figure was 568 s; with `CC1CC(=O)N(CC(=O)Nc2ccc3c(c2)OCCO3)c2ccccc2S1` (stereo unspecified), 859 s; with `Cc1ccc(S(=O)(=O)N2C[C@@H]3C[C@H](NC(=O)c4cccs4)[C@H]2C3)cc1Cl`, 992 s.
With `CCCCc1nn2c(=O)cc(CN3CCN(c4ncccn4)CC3)nc2s1` the figure was 604 s; with `O=S(=O)(NC1(c2nc(-c3ccsc3)no2)CCCCC1)c1ccc2c(c1)OCCO2`, 954 s; with `O=C(Cn1c(=O)cc(-c2nc(C3CC3)no2)c2ccccc21)NC1CCCC1`, 869 s.
Molecule `COc1ccc(CNC(=O)CCc2nnc3c4cc(-c5ccccc5)nn4ccn23)cc1` displayed an RP-LC retention time of 728 s.
The molecule `CC(C)N1CCCn2cc(S(=O)(=O)Nc3cccc(OC(F)(F)F)c3)cc2C1=O` gave an RP-LC retention time of 881 s.
Consider `O=c1c2cc(-c3cccs3)nn2cnn1Cc1nc(-c2ccc(F)cc2)no1`, for which the RP-LC retention time amounted to 1040 s.
Molecule `Cc1nn(CC(=O)NCCN2CCCC2)c(=O)c2cc(-c3ccccc3)nn12` gave an RP-LC retention time of 631 s.
For `CS(=O)(=O)N1CCC(OC2CCN(C(=O)NCc3ccccc3)CC2)CC1`, the RP-LC retention time came to 704 s.
The figure for `CC1CCCN(Cc2nc(Cn3ccn4nc(-c5ccccc5)cc4c3=O)no2)C1` (stereo unspecified) is 654 s.
